For test [1], the target named is T1, GRK5 (Homo sapiens, UniProt P34947).
T1 construct: purchased Thermo Scientific
In words: Lance Kinase Activity Assay, GRK5. Particulars: biochemical Lance kinase activity assay; class symbols A-F; read-out: GRK5 LANCE Assay (IC-50). The method, boiled down: (§1)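 IC50s from sigmoidal dose-response over 0.0025-10 μM compound, with phosphorylated ULight substrate detected by Eu anti-phospho antibody FRET after EDTA quench.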

Test [2] has as its target T2, GRK2 (Homo sapiens, UniProt P25098).
T2 construct: purchased Thermo Scientific
T2 sequence (P25098 1-689): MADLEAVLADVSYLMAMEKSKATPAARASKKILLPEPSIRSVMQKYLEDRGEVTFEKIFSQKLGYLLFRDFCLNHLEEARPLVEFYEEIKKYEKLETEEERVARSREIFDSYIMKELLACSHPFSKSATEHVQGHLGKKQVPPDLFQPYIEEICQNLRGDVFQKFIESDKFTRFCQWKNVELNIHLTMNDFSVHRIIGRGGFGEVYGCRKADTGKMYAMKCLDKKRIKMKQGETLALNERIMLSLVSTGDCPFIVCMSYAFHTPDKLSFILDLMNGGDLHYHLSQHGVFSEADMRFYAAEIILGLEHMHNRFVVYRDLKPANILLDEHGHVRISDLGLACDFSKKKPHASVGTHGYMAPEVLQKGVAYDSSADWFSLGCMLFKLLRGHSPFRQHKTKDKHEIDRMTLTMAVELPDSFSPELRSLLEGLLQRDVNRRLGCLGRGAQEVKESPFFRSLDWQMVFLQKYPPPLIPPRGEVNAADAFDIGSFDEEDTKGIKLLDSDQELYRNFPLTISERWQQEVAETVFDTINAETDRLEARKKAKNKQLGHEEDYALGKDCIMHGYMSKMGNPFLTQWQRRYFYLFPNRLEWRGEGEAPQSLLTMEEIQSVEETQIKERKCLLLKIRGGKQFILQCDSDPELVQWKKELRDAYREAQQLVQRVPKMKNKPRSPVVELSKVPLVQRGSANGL
Briefly: Lance Kinase Activity Assay, GRK2. The settings on record: biochemical Lance kinase activity assay; class symbols A-F; read-out: GRK2 LANCE Assay (IC-50). The method, boiled down: as §1
On the technique in general: Time-resolved FRET reads energy transfer from a long-lived donor to a nearby acceptor.

T1 sequence (P34947 whole entry): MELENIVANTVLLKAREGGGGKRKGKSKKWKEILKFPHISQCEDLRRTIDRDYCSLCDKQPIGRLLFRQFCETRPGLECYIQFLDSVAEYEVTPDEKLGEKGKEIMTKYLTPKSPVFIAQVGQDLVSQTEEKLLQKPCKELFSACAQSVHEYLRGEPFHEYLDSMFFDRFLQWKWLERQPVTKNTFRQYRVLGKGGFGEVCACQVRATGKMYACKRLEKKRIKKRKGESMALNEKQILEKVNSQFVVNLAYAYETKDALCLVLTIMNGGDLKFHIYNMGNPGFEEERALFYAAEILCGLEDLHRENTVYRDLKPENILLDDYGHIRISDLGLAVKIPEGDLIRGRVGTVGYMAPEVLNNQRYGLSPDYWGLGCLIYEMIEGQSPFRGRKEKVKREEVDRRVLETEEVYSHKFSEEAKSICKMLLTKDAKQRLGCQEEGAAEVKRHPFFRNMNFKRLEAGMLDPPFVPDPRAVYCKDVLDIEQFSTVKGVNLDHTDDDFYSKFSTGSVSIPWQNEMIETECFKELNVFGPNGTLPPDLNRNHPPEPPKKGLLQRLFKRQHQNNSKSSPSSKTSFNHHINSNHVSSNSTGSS

Regarding `COc1ccc([C@@H](C)NC(=O)/C=C/c2c[nH]c3ncc(-c4c(C)nn(C)c4C)cc23)cc1OC` [Example 209, (R,E)-N-(1-(3,4-dimethoxyphenyl)ethyl)-3-(5-(1,3,5-trimethyl-1H-pyrazol-4-yl)-1H-pyrrolo[2,3-b]pyridin-3-yl)acrylamide], the IC50 in test [1] is 0.05 to 0.1 µM; in test [2] it was over 10 µM.
As to `COc1ccc([C@@H](C)NC(=O)/C=C/c2c[nH]c3ncc(-c4cnn(CCN5CCOCC5)c4)cc23)cc1OC` [Example 210, (R,E)-N-(1-(3,4-dimethoxyphenyl)ethyl)-3-(5-(1-(2-morpholinoethyl)-1H-pyrazol-4-yl)-1H-pyrrolo[2,3-b]pyridin-3-yl)acrylamide], the IC50 in test [1] was at most 0.05 µM; in test [2] it was 1 to 10 µM.
For `COc1ccc([C@@H](C)NC(=O)/C=C/c2c[nH]c3ncc(-c4cnn(C)c4C#N)cc23)cc1OC` [Example 211, (R,E)-3-(5-(5-cyano-1-methyl-1H-pyrazol-4-yl)-1H-pyrrolo[2,3-b]pyridin-3-yl)-N-(1-(3,4-dimethoxyphenyl)ethyl)acrylamide], the values for the IC50 in test [1] and in test [2] were at most 0.05 µM and 0.5 to 1 µM, respectively.
For the molecule `COc1ccc([C@@H](C)NC(=O)/C=C/c2c[nH]c3ncc(-c4cn(C)nc4C)cc23)cc1OC` [Example 212, (R,E)-N-(1-(3,4-dimethoxyphenyl)ethyl)-3-(5-(1,3-dimethyl-1H-pyrazol-4-yl)-1H-pyrrolo[2,3-b]pyridin-3-yl)acrylamide], the IC50 is at most 0.05 µM in test [1] and 1 to 10 µM in test [2].
On to `COc1ccc([C@@H](C)NC(=O)/C=C/c2c[nH]c3ncc(-c4cnn(CC(C)O)c4)cc23)cc1OC` (stereo partly drawn) [Example 214, (E)-N-((R)-1-(3,4-dimethoxyphenyl)ethyl)-3-(5-(1-(2-hydroxypropyl)-1H-pyrazol-4-yl)-1H-pyrrolo[2,3-b]pyridin-3-yl)acrylamide], for which the IC50 is at most 0.05 µM in test [1] and 1 to 10 µM in test [2].
With `COc1ccc([C@@H](C)NC(=O)/C=C/c2c[nH]c3ncc(-c4cnn(C5COC5)c4)cc23)cc1OC` [Example 215, (R,E)-N-(1-(3,4-dimethoxyphenyl)ethyl)-3-(5-(1-(oxetan-3-yl)-1H-pyrazol-4-yl)-1H-pyrrolo[2,3-b]pyridin-3-yl)acrylamide], the results for the IC50 in test [1] and in test [2] were at most 0.05 µM and 1 to 10 µM, respectively.
For the molecule `COc1ccc([C@@H](C)NC(=O)/C=C/c2c[nH]c3ncc(-c4cccc(S(=O)(=O)C5CC5)c4)cc23)cc1OC` [Example 216, (R,E)-3-(5-(3-(cyclopropylsulfonyl)phenyl)-1H-pyrrolo[2,3-b]pyridin-3-yl)-N-(1-(3,4-dimethoxyphenyl)ethyl)acrylamide], the figures for the IC50 in test [1] and in test [2] were at most 0.05 µM and 1 to 10 µM, respectively.
For `COc1ccc([C@@H](C)NC(=O)/C=C/c2c[nH]c3ncc(-c4cccc(CS(C)(=O)=O)c4)cc23)cc1OC` [Example 217, (R,E)-N-(1-(3,4-dimethoxyphenyl)ethyl)-3-(5-(3-((methylsulfonyl)methyl)phenyl)-1H-pyrrolo[2,3-b]pyridin-3-yl)acrylamide] the same measures were at most 0.05 µM and 1 to 10 µM.
Consider `COc1ccc([C@@H](C)NC(=O)/C=C/c2c[nH]c3ncc(-c4cncc(S(C)(=O)=O)c4)cc23)cc1OC` [Example 218, (R,E)-N-(1-(3,4-dimethoxyphenyl)ethyl)-3-(5-(5-(methylsulfonyl)pyridin-3-yl)-1H-pyrrolo[2,3-b]pyridin-3-yl)acrylamide], for which the IC50 in test [1] is at most 0.05 µM; in test [2] it was over 10 µM.
Regarding `COc1ccc([C@@H](C)NC(=O)/C=C/c2c[nH]c3ncc(-c4ccc(F)c(S(C)(=O)=O)c4)cc23)cc1OC` [Example 220, (R,E)-N-(1-(3,4-dimethoxyphenyl)ethyl)-3-(5-(4-fluoro-3-(methylsulfonyl)phenyl)-1H-pyrrolo[2,3-b]pyridin-3-yl)acrylamide], the figures for the IC50 in test [1] and in test [2] were at most 0.05 µM and 1 to 10 µM, respectively.
Turning to `COc1ccc([C@@H](C)NC(=O)/C=C/c2c[nH]c3ncc(-c4cccc(C#N)c4)cc23)cc1OC` [Example 221, (R,E)-3-(5-(3-cyanophenyl)-1H-pyrrolo[2,3-b]pyridin-3-yl)-N-(1-(3,4-dimethoxyphenyl)ethyl)acrylamide], the IC50 in test [1] was at most 0.05 µM; in test [2], over 10 µM.
For `COc1ccc([C@@H](C)NC(=O)/C=C/c2c[nH]c3ncc(-c4ccccc4S(C)(=O)=O)cc23)cc1OC` [Example 222, (R,E)-N-(1-(3,4-dimethoxyphenyl)ethyl)-3-(5-(2-(methylsulfonyl)phenyl)-1H-pyrrolo[2,3-b]pyridin-3-yl)acrylamide] the same measures were 1 to 10 µM and over 10 µM.
Taken in the same sequence, the figures for `COc1ccc([C@@H](C)NC(=O)/C=C/c2c[nH]c3nccc(-c4ccc(CN(C)C)cc4)c23)cc1OC` [Example 223, (R,E)-N-(1-(3,4-dimethoxyphenyl)ethyl)-3-(4-(4-((dimethylamino)methyl)phenyl)-1H-pyrrolo[2,3-b]pyridin-3-yl)acrylamide] were 0.1 to 0.5 µM and over 10 µM.
As to `COc1ccc([C@@H](C)NC(=O)/C=C/c2c[nH]c3nccc(-c4cccc(CN(C)C)c4)c23)cc1OC` [Example 224, (R,E)-N-(1-(3,4-dimethoxyphenyl)ethyl)-3-(4-(3-((dimethylamino)methyl)phenyl)-1H-pyrrolo[2,3-b]pyridin-3-yl)acrylamide], the IC50 in test [1] was 0.1 to 0.5 µM; in test [2], over 10 µM.
In the case of `COc1ccc([C@@H](C)NC(=O)/C=C/c2c[nH]c3nccc(-c4ccccc4)c23)cc1OC` [Example 225, (R,E)-N-(1-(3,4-dimethoxyphenyl)ethyl)-3-(4-phenyl-1H-pyrrolo[2,3-b]pyridin-3-yl)acrylamide], the results for the IC50 in test [1] and in test [2] were 0.05 to 0.1 µM and 1 to 10 µM, respectively.
Turning to `COc1ccc([C@@H](C)NC(=O)/C=C/c2c[nH]c3nccc(-c4ccc(NS(C)(=O)=O)cc4)c23)cc1OC` [Example 226, (R,E)-N-(1-(3,4-dimethoxyphenyl)ethyl)-3-(4-(4-(methylsulfonamido)phenyl)-1H-pyrrolo[2,3-b]pyridin-3-yl)acrylamide], the IC50 lay in the range of 0.05 to 0.1 µM in test [1] and 1 to 10 µM in test [2].
With `COc1ccc([C@@H](C)NC(=O)/C=C/c2c[nH]c3nccc(-c4cccc(S(=O)(=O)N(C)C)c4)c23)cc1OC` [Example 227, (R,E)-N-(1-(3,4-dimethoxyphenyl)ethyl)-3-(4-(3-(N,N-dimethylsulfamoyl)phenyl)-1H-pyrrolo[2,3-b]pyridin-3-yl)acrylamide], the IC50 in test [1] lay in the range of 0.1 to 0.5 µM; in test [2], 1 to 10 µM.
As to `COc1ccc([C@@H](C)NC(=O)/C=C/c2c[nH]c3nccc(-c4cccc(N(C)C)c4)c23)cc1OC` [Example 228, (R,E)-N-(1-(3,4-dimethoxyphenyl)ethyl)-3-(4-(3-(dimethylamino)phenyl)-1H-pyrrolo[2,3-b]pyridin-3-yl)acrylamide], the IC50 in test [1] is 0.05 to 0.1 µM; in test [2] it was 1 to 10 µM.
Consider `COc1ccc([C@@H](C)NC(=O)/C=C/c2c[nH]c3nccc(-c4ccc(F)cc4OC)c23)cc1OC` [Example 229, (R,E)-N-(1-(3,4-dimethoxyphenyl)ethyl)-3-(4-(4-fluoro-2-methoxyphenyl)-1H-pyrrolo[2,3-b]pyridin-3-yl)acrylamide], for which the IC50 in test [1] was 1 to 10 µM; in test [2] it was over 10 µM.
In the case of `COc1ccc([C@@H](C)NC(=O)/C=C/c2c[nH]c3nccc(-c4ccc(OCCN(C)C)cc4)c23)cc1OC` [Example 230, (R,E)-N-(1-(3,4-dimethoxyphenyl)ethyl)-3-(4-(4-(2-(dimethylamino)ethoxy)phenyl)-1H-pyrrolo[2,3-b]pyridin-3-yl)acrylamide], the IC50 in test [1] was at most 0.05 µM; in test [2] it was 1 to 10 µM.
In the case of `COc1ccc([C@@H](C)NC(=O)/C=C/c2c[nH]c3nccc(-c4cccc(NS(C)(=O)=O)c4)c23)cc1OC` [Example 231, (R,E)-N-(1-(3,4-dimethoxyphenyl)ethyl)-3-(4-(3-(methylsulfonamido)phenyl)-1H-pyrrolo[2,3-b]pyridin-3-yl)acrylamide], the IC50 in test [1] was 0.1 to 0.5 µM; in test [2], over 10 µM.
As for `COc1ccc([C@@H](C)NC(=O)/C=C/c2c[nH]c3nccc(-c4ccc(CN5CCOCC5)cc4)c23)cc1OC` [Example 232, (R,E)-N-(1-(3,4-dimethoxyphenyl)ethyl)-3-(4-(4-(morpholinomethyl)phenyl)-1H-pyrrolo[2,3-b]pyridin-3-yl)acrylamide], the IC50 in test [1] was 0.05 to 0.1 µM; in test [2], 1 to 10 µM.
For `COc1ccc([C@@H](C)NC(=O)/C=C/c2c[nH]c3nccc(-c4cccc(C(N)=O)c4)c23)cc1OC` [Example 233, (R,E)-3-(3-(3-((1-(3,4-dimethoxyphenyl)ethyl)amino)-3-oxoprop-1-en-1-yl)-1H-pyrrolo[2,3-b]pyridin-4-yl)benzamide], the IC50 lay within 0.05 to 0.1 µM in test [1] and 1 to 10 µM in test [2].
